In ChEMBL document CHEMBL1201861, “Genomics of Drug Sensitity in Cancer screening data, Wellcome Trust Sanger Institute”:

What was measured:
Assay in all cases: cells
DU-4475 = assay type: functional, cell-based; settings: Homo sapiens
Description: SANGER: Inhibition of human DU-4475 cell growth in a cell viability assay.

HCE-T = assay type: functional, cell-based, Homo sapiens; settings: Homo sapiens, HCE-T;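 note: cell viability assay read-out, reporting inhibition of HCE-T cell growth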
Description: SANGER: Inhibition of human HCE-T cell growth in a cell viability assay.

NCI-H747 = assay type: functional, cell-based; settings: Homo sapiens;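 note: growth inhibition of human NCI-H747 cells, read out by a cell viability assay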
Description: SANGER: Inhibition of human NCI-H747 cell growth in a cell viability assay.

RCC10RGB = assay type: functional, cell-based, Homo sapiens; settings: Homo sapiens, RCC10RGB;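 note: growth inhibition of human RCC10RGB cells, read out by a cell viability assay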
Description: SANGER: Inhibition of human RCC10RGB cell growth in a cell viability assay.

KM12 = assay type: functional, cell-based, Homo sapiens; settings: Homo sapiens, KM12;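 note: KM12 cell growth inhibition, read out with a cell viability assay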
Description: SANGER: Inhibition of human KM12 cell growth in a cell viability assay.

LS-123 = assay type: functional, cell-based, Homo sapiens; settings: Homo sapiens, LS-123
Description: SANGER: Inhibition of human LS-123 cell growth in a cell viability assay.

L-363 = assay type: functional, cell-based; settings: Homo sapiens
Description: SANGER: Inhibition of human L-363 cell growth in a cell viability assay.

SK-UT-1 = assay type: functional, cell-based, Homo sapiens; settings: Homo sapiens, SK-UT-1;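 note: growth inhibition of SK-UT-1 cells, measured by a cell viability assay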
Description: SANGER: Inhibition of human SK-UT-1 cell growth in a cell viability assay.

HL-60 = assay type: functional, cell-based; settings: Homo sapiens;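 note: growth inhibition of human HL-60 cells, read out with a cell viability assay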
Description: SANGER: Inhibition of human HL-60 cell growth in a cell viability assay.

D-247MG = assay type: functional, cell-based, Homo sapiens; settings: Homo sapiens, D-247MG
Description: SANGER: Inhibition of human D-247MG cell growth in a cell viability assay.

SK-LMS-1 = assay type: functional, cell-based, Homo sapiens; settings: Homo sapiens, SK-LMS-1;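 note: growth inhibition of human SK-LMS-1 cells, read out with a cell viability assay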
Description: SANGER: Inhibition of human SK-LMS-1 cell growth in a cell viability assay.

KNS-42 = assay type: functional, cell-based, Homo sapiens; settings: Homo sapiens, KNS-42;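 note: growth inhibition of KNS-42 cells, read out with a cell viability assay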
Description: SANGER: Inhibition of human KNS-42 cell growth in a cell viability assay.

RXF 393 = assay type: functional, cell-based; settings: Homo sapiens;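 note: growth inhibition of human RXF 393 cells, read out with a cell viability assay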
Description: SANGER: Inhibition of human RXF393 cell growth in a cell viability assay.

ES8 = assay type: functional, cell-based, Homo sapiens; settings: Homo sapiens, ES8;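 note: growth inhibition of human ES8 cells, read out with a cell viability assay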
Description: SANGER: Inhibition of human ES8 cell growth in a cell viability assay.

ML-2 = assay type: functional, cell-based; settings: Homo sapiens;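 note: growth inhibition of ML-2 cells, measured with a cell viability readout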
Description: SANGER: Inhibition of human ML-2 cell growth in a cell viability assay.

TE-10 = assay type: functional, cell-based, Homo sapiens; settings: Homo sapiens, TE-10;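 note: growth inhibition of TE-10 cells, measured by a cell viability assay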
Description: SANGER: Inhibition of human TE-10 cell growth in a cell viability assay.

ES6 = assay type: functional, cell-based, Homo sapiens; settings: Homo sapiens, ES6;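 note: growth inhibition of human ES6 cells, read out with a cell viability assay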
Description: SANGER: Inhibition of human ES6 cell growth in a cell viability assay.

COLO-320-HSR = assay type: functional, cell-based; settings: Homo sapiens;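 note: growth inhibition of COLO-320-HSR cells, determined with a cell viability assay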
Description: SANGER: Inhibition of human COLO-320-HSR cell growth in a cell viability assay.

SHP77 = assay type: functional, cell-based, Homo sapiens, SHP-77; settings: Homo sapiens, SHP77;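 note: growth inhibition of human SHP-77 cells measured by a cell viability assay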
Description: SANGER: Inhibition of human SHP-77 cell growth in a cell viability assay.

AM-38 = assay type: functional, cell-based, Homo sapiens; settings: Homo sapiens, AM-38;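 note: growth inhibition of AM-38 cells of human origin, read out by a cell viability assay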
Description: SANGER: Inhibition of human AM-38 cell growth in a cell viability assay.

KNS-81-FD = assay type: functional, cell-based, Homo sapiens; settings: Homo sapiens, KNS-81-FD;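 note: growth inhibition of KNS-81-FD cells, read out with a cell viability assay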
Description: SANGER: Inhibition of human KNS-81-FD cell growth in a cell viability assay.

TE-1 = assay type: functional, cell-based, Homo sapiens; settings: Homo sapiens, TE-1
Description: SANGER: Inhibition of human TE-1 cell growth in a cell viability assay.

BB65-RCC = assay type: functional, cell-based, Homo sapiens; settings: Homo sapiens, BB65-RCC;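 note: growth inhibition of the cell line, measured with a cell viability assay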
Description: SANGER: Inhibition of human BB65-RCC cell growth in a cell viability assay.

GAK = assay type: functional, cell-based, Homo sapiens; settings: Homo sapiens, GAK;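 note: cell growth inhibition read out by a cell viability assay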
Description: SANGER: Inhibition of human GAK cell growth in a cell viability assay.

NCI-H1304 = assay type: functional, cell-based; settings: Homo sapiens;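 note: growth inhibition of the cancer cell line, measured in a cell viability assay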
Description: SANGER: Inhibition of human NCI-H1304 cell growth in a cell viability assay.

COR-L88 = assay type: functional, cell-based; settings: Homo sapiens;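 note: growth inhibition of COR-L88 cells, read out with a cell viability assay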
Description: SANGER: Inhibition of human COR-L88 cell growth in a cell viability assay.

SCH = assay type: functional, cell-based, Homo sapiens; settings: Homo sapiens, SCH;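 note: growth inhibition of human SCH cells, read out in a cell viability assay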
Description: SANGER: Inhibition of human SCH cell growth in a cell viability assay.

no-11 = assay type: functional, cell-based, Homo sapiens; settings: Homo sapiens;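 note: growth inhibition of human NO-11 cells, read out with a cell viability assay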
Description: SANGER: Inhibition of human no-11 cell growth in a cell viability assay.

Structure (SMILES) | IC50 (DU-4475) | IC50 (HCE-T) | IC50 (NCI-H747) | IC50 (RCC10RGB) | IC50 (KM12) | IC50 (LS-123) | IC50 (L-363) | IC50 (SK-UT-1) | IC50 (HL-60) | IC50 (D-247MG) | IC50 (SK-LMS-1) | IC50 (KNS-42) | IC50 (RXF 393) | IC50 (ES8) | IC50 (ML-2) | IC50 (TE-10) | IC50 (ES6) | IC50 (COLO-320-HSR) | IC50 (SHP77) | IC50 (AM-38) | also measured
C=C1C(=O)O[C@@H]2C3O[C@]3(C)CC/C=C(\C)CC[C@@H]12 (some centres not stated) | > 5 µM | > 5 µM | > 5 µM | > 5 µM | > 5 µM | > 5 µM | > 5 µM | > 5 µM | > 5 µM | > 5 µM | > 5 µM | > 5 µM | > 5 µM | > 5 µM | > 5 µM | > 5 µM | > 5 µM | > 5 µM | > 5 µM | > 5 µM | IC50 (KNS-81-FD): > 5 µM; IC50 (TE-1): > 5 µM; IC50 (BB65-RCC): > 5 µM; IC50 (GAK): > 5 µM; IC50 (NCI-H1304): > 5 µM; IC50 (COR-L88): > 5 µM; IC50 (SCH): > 5 µM; IC50 (no-11): > 5 µM
CC1=C2C[C@H]3[C@@H](CC=C4C[C@@H](O)CC[C@@]43C)[C@@H]2CC[C@]12O[C@@H]1C[C@H](C)CN[C@H]1[C@H]2C [CYCLOPAMINE] | > 16 µM | > 16 µM | > 16 µM | > 16 µM | > 16 µM | > 16 µM | > 16 µM | > 16 µM | > 16 µM | > 16 µM | > 16 µM | > 16 µM | > 16 µM | > 16 µM | > 16 µM | > 16 µM | > 16 µM | > 16 µM | > 16 µM | > 16 µM | IC50 (KNS-81-FD): > 16 µM; IC50 (TE-1): > 16 µM; IC50 (BB65-RCC): > 16 µM; IC50 (GAK): > 16 µM; IC50 (NCI-H1304): > 16 µM; IC50 (COR-L88): > 16 µM; IC50 (SCH): > 16 µM; IC50 (no-11): > 16 µM
CS(=O)(=O)CCNCc1ccc(-c2ccc3ncnc(Nc4ccc(OCc5cccc(F)c5)c(Cl)c4)c3c2)o1 [LAPATINIB] | > 2 µM | > 2 µM | > 2 µM | > 2 µM | > 2 µM | > 2 µM | > 2 µM | > 2 µM | > 2 µM | > 2 µM | > 2 µM | > 2 µM | > 2 µM | > 2 µM | > 2 µM | > 2 µM | > 2 µM | > 2 µM | > 2 µM | > 2 µM | IC50 (KNS-81-FD): > 2 µM; IC50 (TE-1): > 2 µM; IC50 (BB65-RCC): > 2 µM; IC50 (NCI-H1304): > 2 µM; IC50 (COR-L88): > 2 µM; IC50 (SCH): > 2 µM; IC50 (no-11): > 2 µM
CCc1nc(N)nc(N)c1-c1ccc(Cl)cc1 [PYRIMETHAMINE] | > 20 µM | > 20 µM | > 20 µM | > 20 µM | 2.32 µM | > 20 µM | > 20 µM | > 20 µM | > 20 µM | > 20 µM | > 20 µM | > 20 µM | > 20 µM | 0.897 µM | 11.5 µM | > 20 µM | 17.2 µM | 4 µM | > 20 µM | > 20 µM | IC50 (KNS-81-FD): > 20 µM; IC50 (TE-1): 9.92 µM; IC50 (BB65-RCC): > 20 µM; IC50 (GAK): > 20 µM; IC50 (NCI-H1304): > 20 µM; IC50 (COR-L88): > 20 µM; IC50 (SCH): 16.9 µM; IC50 (no-11): > 20 µM
O=C(/C=C/c1ccccc1)NC(NC(=S)Nc1cccc2cccnc12)C(Cl)(Cl)Cl (configuration not stated) [SALUBRINAL] | > 16 µM | > 16 µM | > 16 µM | > 16 µM | > 16 µM | > 16 µM | 13.6 µM | > 16 µM | 13.3 µM | > 16 µM | > 16 µM | > 16 µM | > 16 µM | 8.64 µM | 4.62 µM | > 16 µM | > 16 µM | > 16 µM | > 16 µM | > 16 µM | IC50 (KNS-81-FD): > 16 µM; IC50 (TE-1): > 16 µM; IC50 (BB65-RCC): > 16 µM; IC50 (GAK): > 16 µM; IC50 (NCI-H1304): > 16 µM; IC50 (COR-L88): > 16 µM; IC50 (SCH): > 16 µM; IC50 (no-11): > 16 µM
CNC(=O)c1cc(Oc2ccc(NC(=O)Nc3ccc(Cl)c(C(F)(F)F)c3)cc2)ccn1 [SORAFENIB] | […] | […] | […] | […] | 1.02 µM | […] | […] | […] | 3.06 µM | 2.14 µM | […] | […] | […] | […] | […] | […] | […] | […] | […] | […] | IC50 (KNS-81-FD): […]; IC50 (TE-1): […]; IC50 (BB65-RCC): 0.471 µM; IC50 (GAK): […]; IC50 (NCI-H1304): […]; IC50 (COR-L88): […]; IC50 (SCH): […]; IC50 (no-11): […]
